Data on 24 molecules can be found in patent publication US20230183239A1, “ECTONUCLEOTIDE PYROPHOSPHATASE-PHOSPHODIESTERASE 1 (ENPP-1) INHIBITORS AND USES THEREOF” (AbbVie Inc., priority 2017, published 2023).

Each structure is given as a SMILES string. Where only a bound is given, the exact number is not on record here.

What all share (type): biochemical
For assay [1], the target named is T1, ENPP1 (Homo sapiens, UniProt P22413).
T1 sequence (P22413 1-925): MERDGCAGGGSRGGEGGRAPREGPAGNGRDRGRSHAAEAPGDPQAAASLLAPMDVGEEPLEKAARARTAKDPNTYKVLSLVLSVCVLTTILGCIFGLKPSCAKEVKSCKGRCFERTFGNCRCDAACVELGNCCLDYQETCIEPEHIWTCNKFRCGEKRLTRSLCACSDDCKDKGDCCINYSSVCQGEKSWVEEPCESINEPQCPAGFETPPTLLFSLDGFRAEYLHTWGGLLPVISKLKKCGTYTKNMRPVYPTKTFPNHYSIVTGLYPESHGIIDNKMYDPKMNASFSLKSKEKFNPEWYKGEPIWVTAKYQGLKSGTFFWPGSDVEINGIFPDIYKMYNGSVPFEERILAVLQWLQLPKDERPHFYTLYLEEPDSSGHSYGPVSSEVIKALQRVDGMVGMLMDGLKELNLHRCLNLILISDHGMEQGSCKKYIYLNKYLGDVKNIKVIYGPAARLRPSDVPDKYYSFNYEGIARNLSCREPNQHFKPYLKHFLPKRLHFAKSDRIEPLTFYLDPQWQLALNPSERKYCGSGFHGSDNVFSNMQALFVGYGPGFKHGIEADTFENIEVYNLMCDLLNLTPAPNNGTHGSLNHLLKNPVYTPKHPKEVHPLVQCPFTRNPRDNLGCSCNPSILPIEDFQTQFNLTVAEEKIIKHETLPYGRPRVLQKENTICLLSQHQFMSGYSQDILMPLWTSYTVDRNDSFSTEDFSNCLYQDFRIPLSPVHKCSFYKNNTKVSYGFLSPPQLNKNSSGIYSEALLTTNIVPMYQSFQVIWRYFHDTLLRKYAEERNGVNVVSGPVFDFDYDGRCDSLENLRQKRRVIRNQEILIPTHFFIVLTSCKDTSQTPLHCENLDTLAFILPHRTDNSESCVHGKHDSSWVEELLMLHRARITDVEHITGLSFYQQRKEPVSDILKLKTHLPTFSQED
The experiment in a line: Indirect quantitation of 2',3'-cGAMP hydrolysis (AMP-Glo Assay kit). Conditions: cGAMP substrate; Ki from IC50 by Cheng-Prusoff; read-out: ENPP1 Inhibition -cGAMP: Ki.

The target of assay [2] is T1, ENPP1. The experiment in a line: Substrate selectivity ratio, inhibition of cGAMP hydrolysis versus ATP hydrolysis. To be noted: ratio Ki AMP-pNP / Ki cGAMP. As to the method: The selectivity ratios for inhibition of cGAMP hydrolysis versus ATP hydrolysis were then calculated as follows: […]
Assay [3] addresses T1, ENPP1. The assay is described as follows: ENPP1 enzyme assay with AMP-pNP substrate (hydrolysis of ATP analog). Conditions: AMP-pNP substrate (ATP analog); Ki from IC50 by Cheng-Prusoff; read-out: ENPP1 Inhibition _AMP-pNP: Ki. As to the method: The ENPP1 assay with AMP-pNP substrate is conducted in a buffer containing 50 mM Tris-HCl (pH 8.5)/ 250 mM NaCl/0.5 mM CaCl2/1 µM ZnCl2/0.1% DMSO. Inhibitors are added at final concentrations ranging between 10 µM and 30 pM depending on the compound. Duplicate wells are run at each inhibitor concentration. The final assay volume is 40 µL and human recombinant ENPP1 is present at 60 ng/well. The assay is initiated by the addition of substrate (300 µM AMP-pNP final concentration), and incubated for 20 minutes at 37° C. […] Each assay plate also includes wells with no enzyme added (MIN OD) and wells with no inhibitor added (MAX OD). The percent inhibition of ENPP1 for each sample is then calculated as: […]
IC50 values of compounds were calculated by entering the percent inhibition values into a sigmoidal variable slope nonlinear regression model in GraphPad Prism® software.

For orientation: Ki means the equilibrium dissociation constant of an inhibitor or competing ligand from its target. Regarding `NS(=O)(=O)c1ccc(CNc2ncnc3cc(F)ccc23)cc1` [Example 304, 4-(((7-fluoroquinazolin-4-yl)amino)methyl)benzenesulfonamide], the results for the Ki in assay [1] and in assay [3] were below 100 nM and above 1000 nM, respectively. Further, the “Substrate Selectivity: Ki_AMP-pNP/Ki_cGAMP” value (from here on “Substrate Selectivity”) in assay [2] is above 34.0.

With `COc1ccc2c(Oc3ccc(NS(=O)(=O)NN)cc3)ccnc2c1` [Example 362, N-(4-((7-methoxyquinolin-4-yl)oxy)phenyl)hydrazinesulfonamide], the Ki in assay [1] is 100 to 1000 nM; in assay [3], above 1000 nM. Besides, the “Substrate Selectivity” value in assay [2] is listed as above 216.

As for `NS(=O)(=O)N1CCc2ccc(-c3ccnc4cc(F)ccc34)cc2C1` [Example 311, 7-(7-fluoroquinolin-4-yl)-3,4-dihydroisoquinoline-2(1H)-sulfonamide], the results for the Ki in assay [1] and in assay [3] were below 100 nM and above 1000 nM, respectively. The “Substrate Selectivity” value in assay [2] is listed as above 133.

Take `COc1cc2ncc(C#N)c(-c3ccc(CNS(N)(=O)=O)cc3)c2cc1F` [Example 395, N-(4-(3-cyano-6-fluoro-7-methoxyquinolin-4-yl)benzyl)sulfamide]: the figures for the Ki in assay [1] and in assay [3] were below 100 nM and 100 to 1000 nM, respectively. Also, the “Substrate Selectivity” value in assay [2] was above 31.

As for `COc1ccc2ncnc(N3CCC4(CC3)CCN(S(N)(=O)=O)C4)c2c1` [Example 70, 8-(6-methoxyquinazolin-4-yl)-2,8-diazaspiro [4.5] decane-2-sulfonamide], the Ki in assay [1] and in assay [3] was below 100 nM throughout. Also, in assay [2], the “Substrate Selectivity” value is 15.5.

Consider `COc1ccc2c(-c3ccc(CCNS(N)(=O)=O)cc3)ccnc2c1` [Example 403, N-(4-(7-methoxyquinolin-4-yl)phenethyl)sulfamide], for which the values for the inhibitory constant (Ki) in assay [1] and in assay [3] were 100 to 1000 nM and above 1000 nM, respectively. Also, the “Substrate Selectivity” value in assay [2] is reported as above 227.

Turning to `COc1cc2ncnc(-c3ccc(CNS(N)(=O)=O)c(F)c3)c2cc1OC` [Example 301, N-(4-(6,7-dimethoxyquinazolin-4-yl)-2-fluorobenzyl)sulfamide], the Ki in assay [1] is below 100 nM; in assay [3] it was 100 to 1000 nM. For the same molecule, the “Substrate Selectivity” value in assay [2] is reported as 34.2.

As to `COc1cc2nccc(N3CC4CN(S(N)(=O)=O)CC4C3)c2cc1OC` (stereo not drawn) [Example 202, 5-(6,7-dimethoxyquinolin-4-yl)hexahydropyrrolo[3,4-c]pyrrole-2(1H)-sulfonamide], the values for the Ki in assay [1] and in assay [3] were below 100 nM and 100 to 1000 nM, respectively. Besides, the “Substrate Selectivity” value in assay [2] is reported as 10.5.

Regarding `COc1ccc2c(Oc3ccc(S(N)(=O)=O)cc3)ccnc2n1` [Example 361, 4-(7-Methoxy-[1,8]naphthyridin-4-yl-oxy)-benzene sulfonamide], the Ki in assay [1] and in assay [3] was below 100 nM each time. Also, the “Substrate Selectivity” value in assay [2] came to 32.

On to `COc1cc2c(N3CCC4(CC3)CCN(S(N)(=O)=O)C4)c(C#N)cnc2cn1` [Example 256, 8-(3-cyano-6-methoxy-1,7-naphthyridin-4-yl)-2,8-diazaspiro [4.5] decane-2-sulfonamide], for which the Ki in assay [1] was below 100 nM; in assay [3], above 1000 nM. Besides, the “Substrate Selectivity” value in assay [2] is reported as above 118.

Regarding `COc1ccc2c(-c3ccc4c(c3)CN(S(N)(=O)=O)CC4)c(C)cnc2c1` [Example 371, 7-(7-methoxy-3-methylquinolin-4-yl)-3,4-dihydroisoquinoline-2(1H)-sulfonamide], the Ki was below 100 nM in assay [1] and above 1000 nM in assay [3]. For the same molecule, the “Substrate Selectivity” value in assay [2] is recorded as above 32.

Regarding `Cn1cnc2nccc(-c3ccc4c(c3)CN(S(N)(=O)=O)CC4)c21` [Example 193, 7-(1-methyl-1H-imidazo[4,5-b]pyridin-7-yl)-3,4-dihydroisoquinoline-2(1H)-sulfonamide], the Ki was below 100 nM in assay [1] and above 1000 nM in assay [3]. The “Substrate Selectivity” value in assay [2] is listed as above 38.6.

For the molecule `COc1ccc2c(N3CCC(CCNS(N)(=O)=O)CC3)ncnc2c1` [Example 198, N-(2-(1-(7-methoxyquinazolin-4-yl)piperidin-4-yl)ethyl)sulfamide], the Ki is below 100 nM in assay [1] and 100 to 1000 nM in assay [3]. For the same molecule, the “Substrate Selectivity” value in assay [2] came out at 39.2.

As to `COc1cc2nccc(OC3CCC(NS(N)(=O)=O)C3)c2cc1OC` (stereo not drawn) [Example 213, N-(3-((6,7-dimethoxyquinolin-4-yl)oxy)cyclopentyl)sulfamide], the Ki in assay [1] is below 100 nM; in assay [3], above 1000 nM. The “Substrate Selectivity” value in assay [2] amounted to 33.0.

In the case of `COc1ccc2c(N3CCc4cc(N(C)S(N)(=O)=O)ccc43)ccnc2c1` [Example 418, N-(1-(7-methoxyquinolin-4-yl)indolin-5-yl)-N-methylsulfamide], the Ki in assay [1] is below 100 nM; in assay [3] it was 100 to 1000 nM. Also, in assay [2], the “Substrate Selectivity” value is above 40.

Consider `COc1ccc2c(-c3ccc(CNS(N)(=O)=O)cn3)ccnc2c1` [Example 387, ((6-(7-methoxy quinolin-4-yl)pyridin-3-yl)methyl)sulfamide], for which the Ki in assay [1] is below 100 nM; in assay [3], above 1000 nM. Further, the “Substrate Selectivity” value in assay [2] is reported as 36.

Take `COc1cc2ncc(-c3ccc4c(c3)CN(S(N)(=O)=O)CC4)c(Cl)c2cc1OC` [Example 260, 7-(4-chloro-6,7-dimethoxyquinolin-3-yl)-3,4-dihydroisoquinoline-2(1H)-sulfonamide]: the Ki in assay [1] and in assay [3] was below 100 nM in each case. For the same molecule, in assay [2], the “Substrate Selectivity” value is on record as 21.5.

For `COc1cc2ncnc(NCc3ccc(C(=O)NO)cc3)c2cc1OC` [Example 196, 4-(((6,7-dimethoxyquinazolin-4-yl)amino)methyl)-N-hydroxybenzamide], the values for the Ki in assay [1] and in assay [3] were below 100 nM and above 1000 nM, respectively. In assay [2], the “Substrate Selectivity” value was above 13.4.

Turning to `COc1cc2ncnc(N3CCC(CCn4nnc(N)n4)CC3)c2cc1OC` [Example 195, 2-(2-(1-(6,7-dimethoxyquinazolin-4-yl)piperidin-4-yl)ethyl)-2H-tetrazol-5-amine], the Ki in assay [1] is 100 to 1000 nM; in assay [3], above 1000 nM. The “Substrate Selectivity” value in assay [2] is listed as above 45.7.

As for `COc1cc2ncc(C#N)c(N3CCC(CCNS(N)(=O)=O)CC3)c2cn1` [Example 245, N-(2-(1-(3-cyano-7-methoxy-1,6-naphthyridin-4-yl)piperidin-4-yl)ethyl)sulfamide], the Ki in assay [1] was 100 to 1000 nM; in assay [3] it was above 1000 nM. In assay [2], the “Substrate Selectivity” value was above 92.6.

As for `COc1ccc2c(Oc3ccc(NS(N)(=O)=O)c(C)c3)ccnc2c1` [Example 308, N-(4-((7-methoxyquinolin-4-yl)oxy)-2-methylphenyl)sulfamide], the values for the Ki in assay [1] and in assay [3] were below 100 nM and 100 to 1000 nM, respectively. Further, the “Substrate Selectivity” value in assay [2] stood at 28.4.

For `COc1cc2nccc(-c3ccc(CNS(N)(=O)=O)cc3)c2cc1OC` [Example 225, N-(4-(6,7-dimethoxyquinolin-4-yl)benzyl)sulfamide], the Ki in assay [1] and in assay [3] was below 100 nM throughout. In addition, the “Substrate Selectivity” value in assay [2] was 48.4.

In the case of `COc1ccc2c(Oc3ccc(NS(N)(=O)=O)cc3F)ccnc2c1` [Example 71, N-(3-fluoro-4-((7-methoxyquinolin-4-yl)oxy)phenyl)sulfamide], the Ki in assay [1] and in assay [3] was below 100 nM each time. Also, the “Substrate Selectivity” value in assay [2] was determined as 13.3.

Turning to `COc1cc2nccc(NC3CCC(NS(N)(=O)=O)CC3)c2cc1OC` (stereo not drawn) [Example 307, N-(4-((6,7-dimethoxyquinolin-4-yl)amino)cyclohexyl)sulfamide], the figures for the Ki in assay [1] and in assay [3] were 100 to 1000 nM and above 1000 nM, respectively. For the same molecule, the “Substrate Selectivity” value in assay [2] was above 15.5.
